In the NIST ThermoML archive (doi:10.1021/acs.jced.5b00992):
Numbers after ± are expanded uncertainties.

Experiments:
[1] = wn = mass fraction of the nth substance listed; conditions: 313.15 K, 88.4 kPa, Liquid; for viscosity: Capillary tube (Ostwald / Ubbelohde) method; for mass density: Pycnometric method
[2] = refractive index (Na D-line) (dimensionless); wn = mass fraction of the nth substance listed; conditions: 313.15 K, 88.4 kPa, Liquid, Standard Abbe refractometry

| viscosity ([1]; w1 = 0.129) [mPa·s] | mass density ([1]; w1 = 0.129) [kg/m3] | refractive index ([2]; w1 = 0.129) | viscosity ([1]; w1 = 0.3237) [mPa·s] | mass density ([1]; w1 = 0.3237) [kg/m3] | refractive index ([2]; w1 = 0.3237) | Structure (SMILES) |
| --- | --- | --- | --- | --- | --- | --- |
| 0.8181 ± 0.082 | 1097.5 ± 2.3 | 1.3466 ± 0.0006 |  |  |  | O=S(=O)([O-])[O-].[K+].[K+] [potassium sulfate] + O |
|  |  |  | 2.871 ± 0.29 | 1317.6 ± 3.7 | 1.3774 ± 0.0006 | O=S(=O)([O-])[O-].[Na+].[Na+] [sodium sulfate] + O |
